Source: article PMC7407272, “Induction of Lysosome Membrane Permeabilization as a Therapeutic Strategy to Target Pancreatic Cancer Stem Cells” (Cancers, 2020)

Experiments:
[1] = molecular target: T1, NEK2 (Homo sapiens, UniProt P51955); assay: KINOMEscan; format: binding; conditions: read-out: % Ctrl
T1 construct: purchased DiscoveRx KINOMEscan

[2] = molecular target: T2, HIPK1 (Homo sapiens, UniProt Q86Z02); assay: KINOMEscan; format: binding; conditions: read-out: % Ctrl
T2 construct: purchased DiscoveRx KINOMEscan
T2 sequence (Q86Z02 whole entry): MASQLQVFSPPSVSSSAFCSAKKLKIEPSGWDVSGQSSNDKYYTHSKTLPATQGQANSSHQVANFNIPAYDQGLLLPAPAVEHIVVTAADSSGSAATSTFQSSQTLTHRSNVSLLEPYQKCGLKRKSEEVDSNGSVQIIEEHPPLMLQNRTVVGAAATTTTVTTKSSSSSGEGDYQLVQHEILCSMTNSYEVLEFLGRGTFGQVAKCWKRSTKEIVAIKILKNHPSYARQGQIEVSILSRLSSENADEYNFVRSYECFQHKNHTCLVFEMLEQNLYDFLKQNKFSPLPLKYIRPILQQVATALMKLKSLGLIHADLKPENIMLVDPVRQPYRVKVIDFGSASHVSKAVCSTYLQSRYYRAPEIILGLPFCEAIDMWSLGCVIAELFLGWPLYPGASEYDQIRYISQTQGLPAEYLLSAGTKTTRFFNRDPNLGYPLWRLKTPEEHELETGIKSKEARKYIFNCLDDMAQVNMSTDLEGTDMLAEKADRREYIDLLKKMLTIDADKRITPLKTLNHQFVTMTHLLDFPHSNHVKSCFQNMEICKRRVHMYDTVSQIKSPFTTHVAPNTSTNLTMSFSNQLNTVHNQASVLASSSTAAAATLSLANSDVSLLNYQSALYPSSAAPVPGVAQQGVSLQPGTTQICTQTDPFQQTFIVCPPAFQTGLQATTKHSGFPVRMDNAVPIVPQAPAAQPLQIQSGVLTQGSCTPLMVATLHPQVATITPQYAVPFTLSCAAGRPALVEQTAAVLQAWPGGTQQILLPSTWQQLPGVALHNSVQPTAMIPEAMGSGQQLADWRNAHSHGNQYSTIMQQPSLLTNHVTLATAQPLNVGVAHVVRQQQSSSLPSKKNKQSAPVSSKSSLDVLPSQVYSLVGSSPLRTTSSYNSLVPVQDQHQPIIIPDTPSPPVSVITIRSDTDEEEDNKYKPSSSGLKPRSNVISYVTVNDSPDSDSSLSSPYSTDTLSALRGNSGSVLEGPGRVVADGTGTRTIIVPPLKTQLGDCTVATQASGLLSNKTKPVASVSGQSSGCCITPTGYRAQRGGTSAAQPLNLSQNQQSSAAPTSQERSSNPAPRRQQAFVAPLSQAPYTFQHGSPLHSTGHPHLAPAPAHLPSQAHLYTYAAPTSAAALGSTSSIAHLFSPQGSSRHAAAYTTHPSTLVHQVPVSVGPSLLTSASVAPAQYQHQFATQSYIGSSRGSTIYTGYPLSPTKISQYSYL

[3] = molecular target: T3, YANK3 (Homo sapiens, UniProt Q86UX6); assay: KINOMEscan; format: binding; conditions: read-out: % Ctrl
T3 construct: purchased DiscoveRx KINOMEscan
T3 sequence (Q86UX6 whole entry): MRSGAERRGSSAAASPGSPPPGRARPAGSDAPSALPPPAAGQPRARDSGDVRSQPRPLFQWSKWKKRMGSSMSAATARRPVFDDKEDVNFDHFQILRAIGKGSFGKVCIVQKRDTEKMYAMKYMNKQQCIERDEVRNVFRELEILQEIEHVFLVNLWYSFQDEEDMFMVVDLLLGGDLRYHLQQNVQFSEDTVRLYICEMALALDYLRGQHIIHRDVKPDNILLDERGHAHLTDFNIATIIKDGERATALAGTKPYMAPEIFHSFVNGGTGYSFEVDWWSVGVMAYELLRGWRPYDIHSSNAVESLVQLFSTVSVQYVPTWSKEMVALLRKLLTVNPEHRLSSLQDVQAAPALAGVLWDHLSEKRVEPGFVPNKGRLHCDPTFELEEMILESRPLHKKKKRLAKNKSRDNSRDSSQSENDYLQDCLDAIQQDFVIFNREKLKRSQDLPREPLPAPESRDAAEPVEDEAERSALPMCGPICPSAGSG

[4] = molecular target: T4, QSK (Homo sapiens, UniProt Q9Y2K2); assay: KINOMEscan; format: binding; conditions: read-out: % Ctrl
T4 construct: purchased DiscoveRx KINOMEscan

[5] = molecular target: T5, MST3 (Homo sapiens, UniProt Q9Y6E0); assay: KINOMEscan; format: binding; conditions: read-out: % Ctrl
T5 construct: purchased DiscoveRx KINOMEscan

[6] = molecular target: T6, CSNK1G1 (Homo sapiens, UniProt Q9HCP0); assay: KINOMEscan; format: binding; conditions: read-out: % Ctrl
T6 construct: purchased DiscoveRx KINOMEscan

[7] = molecular target: T7, TTK (Homo sapiens, UniProt P33981); assay: KINOMEscan; format: binding; conditions: read-out: % Ctrl
T7 construct: purchased DiscoveRx KINOMEscan

[8] = molecular target: T8, CSF1R-autoi. (Homo sapiens, UniProt P07333); assay: KINOMEscan; format: binding; conditions: read-out: % Ctrl
T8 construct: purchased DiscoveRx KINOMEscan
T8 sequence (P07333 539-972 limits assumed): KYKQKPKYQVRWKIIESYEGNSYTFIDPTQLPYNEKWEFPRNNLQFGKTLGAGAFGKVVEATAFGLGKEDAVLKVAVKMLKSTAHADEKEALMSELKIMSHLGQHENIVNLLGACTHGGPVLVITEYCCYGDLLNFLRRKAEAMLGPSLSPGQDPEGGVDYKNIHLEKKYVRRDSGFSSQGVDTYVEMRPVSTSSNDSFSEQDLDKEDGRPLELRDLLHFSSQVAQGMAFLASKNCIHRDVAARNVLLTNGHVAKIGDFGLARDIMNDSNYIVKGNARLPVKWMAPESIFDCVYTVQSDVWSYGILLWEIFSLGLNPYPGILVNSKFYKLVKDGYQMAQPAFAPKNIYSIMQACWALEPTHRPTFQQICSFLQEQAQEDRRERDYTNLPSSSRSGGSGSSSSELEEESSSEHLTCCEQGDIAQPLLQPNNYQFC

[9] = molecular target: T9, CAMK1G (Homo sapiens, UniProt Q96NX5); assay: KINOMEscan; format: binding; conditions: read-out: % Ctrl
T9 construct: purchased DiscoveRx KINOMEscan

[10] = molecular target: T10, NEK1 (Homo sapiens, UniProt Q96PY6); assay: KINOMEscan; format: binding; conditions: read-out: % Ctrl
T10 construct: purchased DiscoveRx KINOMEscan

[11] = tested on: PDAC2 cells; assay: CD133 flow cytometry; format: cell-based, human; conditions: 1.25 or 2.5 µM, 72 h
Procedure: Cells were analyzed with a 4-laser Attune NxT Acoustic Cytometer (ThermoFisher Scientific). […] For lysosomes quantification, Acridine Orange (AO) (A1301, Thermo Fisher Scientific, Waltham, MA, USA) or Lysotracker Deep Red (DR) (L12492, Molecular probes, Life Technologies, Waltham, MA, USA) were used. AO fluorescence was assessed with two combinations of excitation and emission spectra: BL1 (Ex488/Em695/40, equal to the far-red channel (>670 nm)) and BL3 (Ex488/Em695/40, equal to the far-red channel (>670 nm)) Lysotracker DR fluorescence was assessed with RL1 (Ex638/Em670/14). […] For all assays, DAPI was used to mark and exclude dead cells, and data were analyzed using the software FlowJo v9.3 (Tree Star Inc., Ashland, OR, USA).
Figure S3. […] Apoptosis was determined 72 h post treatment initiation. […]

[12] = molecular target: T11, TAOK1 (Homo sapiens, UniProt Q7L7X3); assay: KINOMEscan; format: binding; conditions: read-out: % Ctrl
T11 construct: purchased DiscoveRx KINOMEscan

[13] = molecular target: T12, PIK3CD (Homo sapiens, UniProt O00329); assay: KINOMEscan; format: binding; conditions: read-out: % Ctrl
T12 construct: purchased DiscoveRx KINOMEscan

[14] = molecular target: T13, PIK4CB (Homo sapiens, UniProt Q9UBF8); assay: KINOMEscan; format: binding; conditions: read-out: % Ctrl
T13 construct: purchased DiscoveRx KINOMEscan

[15] = molecular target: T14, PIP5K2B (Homo sapiens, UniProt P78356); assay: KINOMEscan; format: binding; conditions: read-out: % Ctrl
T14 construct: purchased DiscoveRx KINOMEscan

[16] = molecular target: T15, MTOR (Homo sapiens, UniProt P42345); assay: KINOMEscan; format: binding; conditions: read-out: % Ctrl
T15 construct: purchased DiscoveRx KINOMEscan

[17] = molecular target: T16, EGFR(S752-I759del) (Homo sapiens, UniProt P00533, DEL752-759); assay: KINOMEscan; format: binding; conditions: read-out: % Ctrl
T16 construct: purchased DiscoveRx KINOMEscan
T16 sequence (P00533 with tags, fused parts or gaps DEL752-759 limits assumed): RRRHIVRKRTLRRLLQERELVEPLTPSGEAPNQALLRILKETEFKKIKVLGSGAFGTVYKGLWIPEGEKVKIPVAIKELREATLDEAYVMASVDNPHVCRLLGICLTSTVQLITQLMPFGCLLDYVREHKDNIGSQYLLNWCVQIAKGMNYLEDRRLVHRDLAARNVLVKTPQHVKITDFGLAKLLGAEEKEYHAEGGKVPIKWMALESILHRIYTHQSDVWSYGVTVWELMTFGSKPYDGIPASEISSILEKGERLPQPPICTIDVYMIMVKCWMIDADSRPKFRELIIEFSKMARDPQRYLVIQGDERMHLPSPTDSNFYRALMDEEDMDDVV

[18] = molecular target: T17, STK36 (Homo sapiens, UniProt Q9NRP7); assay: KINOMEscan; format: binding; conditions: read-out: % Ctrl
T17 construct: purchased DiscoveRx KINOMEscan
T17 sequence (Q9NRP7 whole entry): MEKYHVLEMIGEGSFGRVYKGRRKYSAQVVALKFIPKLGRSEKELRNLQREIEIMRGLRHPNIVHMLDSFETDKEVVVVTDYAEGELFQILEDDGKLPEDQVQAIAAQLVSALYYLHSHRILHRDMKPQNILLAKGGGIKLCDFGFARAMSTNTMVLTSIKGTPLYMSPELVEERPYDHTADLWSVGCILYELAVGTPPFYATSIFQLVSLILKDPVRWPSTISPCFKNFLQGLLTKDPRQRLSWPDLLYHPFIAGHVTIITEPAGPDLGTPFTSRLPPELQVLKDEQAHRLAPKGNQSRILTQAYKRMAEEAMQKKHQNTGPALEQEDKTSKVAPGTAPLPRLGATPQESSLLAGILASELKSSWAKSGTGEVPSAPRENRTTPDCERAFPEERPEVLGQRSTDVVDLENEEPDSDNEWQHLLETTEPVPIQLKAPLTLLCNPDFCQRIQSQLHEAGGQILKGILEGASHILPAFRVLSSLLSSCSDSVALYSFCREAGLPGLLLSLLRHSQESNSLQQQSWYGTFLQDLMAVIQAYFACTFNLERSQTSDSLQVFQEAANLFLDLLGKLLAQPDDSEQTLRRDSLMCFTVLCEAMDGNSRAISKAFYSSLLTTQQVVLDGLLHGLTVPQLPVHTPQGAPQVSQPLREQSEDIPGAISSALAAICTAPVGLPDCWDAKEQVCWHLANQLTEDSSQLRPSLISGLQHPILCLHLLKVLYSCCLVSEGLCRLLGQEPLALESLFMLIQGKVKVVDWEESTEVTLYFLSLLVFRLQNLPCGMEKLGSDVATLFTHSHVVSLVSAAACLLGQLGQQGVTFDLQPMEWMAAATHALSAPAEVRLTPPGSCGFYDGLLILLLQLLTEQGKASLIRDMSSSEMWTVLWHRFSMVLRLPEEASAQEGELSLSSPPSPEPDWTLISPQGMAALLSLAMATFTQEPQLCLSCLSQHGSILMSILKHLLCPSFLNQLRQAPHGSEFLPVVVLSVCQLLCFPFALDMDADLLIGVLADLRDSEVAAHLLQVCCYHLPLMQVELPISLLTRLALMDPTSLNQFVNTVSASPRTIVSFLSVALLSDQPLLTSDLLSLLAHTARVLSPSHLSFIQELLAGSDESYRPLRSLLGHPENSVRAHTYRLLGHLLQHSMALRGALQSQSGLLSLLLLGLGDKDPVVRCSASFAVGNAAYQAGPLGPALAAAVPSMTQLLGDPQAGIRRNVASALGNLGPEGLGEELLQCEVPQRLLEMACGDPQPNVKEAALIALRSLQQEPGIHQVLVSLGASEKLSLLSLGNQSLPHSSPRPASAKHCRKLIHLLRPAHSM

[19] = molecular target: T18, CAMK2D (Homo sapiens, UniProt Q13557); assay: KINOMEscan; format: binding; conditions: read-out: % Ctrl
T18 construct: purchased DiscoveRx KINOMEscan

[20] = molecular target: T19, DYRK2 (Homo sapiens, UniProt Q92630); assay: KINOMEscan; format: binding; conditions: read-out: % Ctrl
T19 construct: purchased DiscoveRx KINOMEscan

[21] = molecular target: T20, RIOK3 (Homo sapiens, UniProt O14730); assay: KINOMEscan; format: binding; conditions: read-out: % Ctrl
T20 construct: purchased DiscoveRx KINOMEscan

[22] = molecular target: T21, GSK3A (Homo sapiens, UniProt P49840); assay: KINOMEscan; format: binding; conditions: read-out: % Ctrl
T21 construct: purchased DiscoveRx KINOMEscan
T21 sequence (P49840 whole entry): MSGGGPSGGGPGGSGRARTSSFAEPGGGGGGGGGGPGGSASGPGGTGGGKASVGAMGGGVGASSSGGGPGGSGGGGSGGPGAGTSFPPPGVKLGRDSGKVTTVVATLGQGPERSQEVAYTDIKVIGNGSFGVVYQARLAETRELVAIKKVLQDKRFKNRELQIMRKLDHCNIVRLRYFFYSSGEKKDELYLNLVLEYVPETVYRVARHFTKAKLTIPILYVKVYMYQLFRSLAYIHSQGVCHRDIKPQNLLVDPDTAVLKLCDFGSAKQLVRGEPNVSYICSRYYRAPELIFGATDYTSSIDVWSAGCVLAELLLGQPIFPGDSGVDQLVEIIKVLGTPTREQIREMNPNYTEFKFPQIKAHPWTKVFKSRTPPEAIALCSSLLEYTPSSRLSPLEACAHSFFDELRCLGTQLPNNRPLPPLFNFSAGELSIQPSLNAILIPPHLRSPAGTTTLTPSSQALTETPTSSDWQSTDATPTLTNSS

[23] = molecular target: T22, VRK2 (Homo sapiens, UniProt Q86Y07); assay: KINOMEscan; format: binding; conditions: read-out: % Ctrl
T22 construct: purchased DiscoveRx KINOMEscan

[24] = molecular target: T23, ERK5 (Homo sapiens, UniProt Q13164); assay: KINOMEscan; format: binding; conditions: read-out: % Ctrl
T23 construct: purchased DiscoveRx KINOMEscan

[25] = molecular target: T24, GRK1 (Homo sapiens, UniProt Q15835); assay: KINOMEscan; format: binding; conditions: read-out: % Ctrl
T24 construct: purchased DiscoveRx KINOMEscan

[26] = molecular target: T25, PAK6 (Homo sapiens, UniProt Q9NQU5); assay: KINOMEscan; format: binding; conditions: read-out: % Ctrl
T25 construct: purchased DiscoveRx KINOMEscan

[27] = molecular target: T26, SGK2 (Homo sapiens, UniProt Q9HBY8); assay: KINOMEscan; format: binding; conditions: read-out: % Ctrl
T26 construct: purchased DiscoveRx KINOMEscan

[28] = molecular target: T27, LATS1 (Homo sapiens, UniProt O95835); assay: KINOMEscan; format: binding; conditions: read-out: % Ctrl
T27 construct: purchased DiscoveRx KINOMEscan

T1 sequence (P51955 whole entry): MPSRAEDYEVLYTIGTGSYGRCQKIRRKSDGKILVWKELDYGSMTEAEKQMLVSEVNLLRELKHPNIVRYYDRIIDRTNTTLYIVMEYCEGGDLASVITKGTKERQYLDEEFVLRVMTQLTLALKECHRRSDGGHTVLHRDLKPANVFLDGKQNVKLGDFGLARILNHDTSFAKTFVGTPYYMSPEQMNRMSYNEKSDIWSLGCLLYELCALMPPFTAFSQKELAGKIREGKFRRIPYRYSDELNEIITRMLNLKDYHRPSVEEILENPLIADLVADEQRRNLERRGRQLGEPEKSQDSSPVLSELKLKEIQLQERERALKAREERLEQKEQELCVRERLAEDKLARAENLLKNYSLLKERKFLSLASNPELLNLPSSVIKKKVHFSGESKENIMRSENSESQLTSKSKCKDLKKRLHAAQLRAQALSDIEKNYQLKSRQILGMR

CN1CCC(CNc2ccc3ncc(C(=O)Nc4cccc(OC(F)(F)F)c4)n3n2)CC1 [Cpd 2]
remaining binding at 1 µM [1]: 94% | remaining binding at 1 µM [2]: 100% | remaining binding at 1 µM [3]: 99% | remaining binding at 1 µM [4]: 100% | remaining binding at 1 µM [5]: 96% | remaining binding at 1 µM [6]: 99% | remaining binding at 1 µM [7]: 63% | remaining binding at 1 µM [8]: 88% | remaining binding at 1 µM [9]: 92% | remaining binding at 1 µM [10]: 99% | percentage of CD133+ cells [11]: reduced | remaining binding at 1 µM [12]: 82% | remaining binding at 1 µM [13]: 85% | remaining binding at 1 µM [14]: 99% | remaining binding at 1 µM [15]: 95% | remaining binding at 1 µM [16]: 100% | remaining binding at 1 µM [17]: 97% | remaining binding at 1 µM [18]: 100% | remaining binding at 1 µM [19]: 99% | remaining binding at 1 µM [20]: 86% | remaining binding at 1 µM [21]: 78% | remaining binding at 1 µM [22]: 100% | remaining binding at 1 µM [23]: 100% | remaining binding at 1 µM [24]: 100% | remaining binding at 1 µM [25]: 86% | remaining binding at 1 µM [26]: 98% | remaining binding at 1 µM [27]: 100% | remaining binding at 1 µM [28]: 100%
